Measured values from US20250332173A1, “COMPOUNDS AND METHODS FOR MODULATING NUCLEIC ACID SPLICING” (REMIX THERAPEUTICS INC., priority 2021, published 2025).
Like-named read-outs stand apart in the source and are kept apart here.

What was measured:
[1] = tested on: HTT mRNA; assay: RT-qPCR splicing assay, HTT canonical junction (CJ) and alternative junction (AJ) mRNA; assay type: cell-based, human; settings: Homo sapiens; for AC50: increase in HTT alternative junction (AJ) mRNA, read-out: HTT AJ AC50
Procedure, shortened: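 Splicing switches were read by TaqMan RT-qPCR on lysates, quantifying exon-exon junctions of the canonical and alternative-exon isoforms. Lysates came from K562 (GAPDH/GUSB reference) or A673 (PPIA reference) cells exposed 24 h to compound in 11 threefold steps from 10 uM, with DMSO ≤0.25%.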

[2] = tested on: K562 (human chronic myelogenous leukemia) cells; assay: Cell Titer Glo 2.0 cell viability assay; assay type: cell-based; settings: Homo sapiens, K562, 72 h, K562 cells, 72 hours, Cell Titer Glo 2.0; read-out: K562 GI50
[3] = tested on: Target C; assay: RT-qPCR splicing assay panel, Target C canonical junction (CJ) mRNA; assay type: cell-based, human; settings: Homo sapiens; canonical junction qPCR panel, Table 5; read-out: Target C (decrease in CJ mRNA levels, IC50)
Procedure, shortened: (§1)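 Exposure: 24 h, 37 °C, 11-point 3-fold dilutions from 10 uM final, DMSO at or below 0.25%, in A673 or K562 cells. Detection: cell-lysate RT-qPCR of canonical junction mRNA relative to GAPDH, GUSB or PPIA.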

[4] = tested on: SMN2 mRNA; assay: RT-qPCR splicing assay, SMN2 canonical junction (CJ) mRNA; assay type: cell-based, human; settings: Homo sapiens; canonical junction qPCR panel, Table 5; read-out: SMN2 (decrease in CJ mRNA levels, IC50)
Procedure, shortened: as §1

[5] = tested on: MYB mRNA; assay: RT-qPCR splicing assay, MYB canonical junction (CJ) and alternative junction (AJ) mRNA; assay type: cell-based, human; settings: Homo sapiens; for AC50: increase in MYB alternative junction (AJ) mRNA, read-out: MYB AJ AC50
Experimental: The expression of a target mRNA was measured by detecting the formation of an exon-exon junction in the canonical transcript (CJ). A compound mediated exon-inclusion event was detected by observing an increase in formation of a new junction with an alternative exon (AJ). Real-time qPCR assays were used to detect these splicing switches and interrogate the potency of various compounds towards different target genes. A high-throughput real time quantitative PCR (RT-qPCR) assay was developed to measure these two isoforms of the mRNA (CJ and AJ) for exemplary genes, such as HTT, SMN2, and MYB, together with a control housekeeping gene, GAPDH or GUSB or PPIA, used for normalization. Briefly, the A673 or K562 cell line was treated with various compounds described herein (e.g., compounds of Formula (I)). After treatment, the levels of the HTT, MYB, or SMN2 mRNA targets were determined from each sample of cell lysate by cDNA synthesis followed by qPCR.
• Cells-to-CT 1-step kit: ThermoFisher A25602, Cells-to-CT lysis reagent: ThermoFisher 4391851C, TaqMan™ Fast Virus 1-Step Master Mix: ThermoFisher 4444436 • GAPDH: VIC-PL, ThermoFisher 4326317E (Assay: Hs99999905_m1)—used for K562/suspension cell lines • GUSB: VIC-PL, ThermoFisher 4326320E (Assay: Hs99999908_m1)—used for K562/suspension cell lines • PPIA: VIC-PL, ThermoFisher 4326316E (Assay: Hs99999904_m1)—used for A673/adherent cell lines
The A673 cell line was cultured in DMEM with 10% FBS. Cells were diluted with full growth media and plated in a 96-well plate (15,000 cells in 100 ul media per well). The plate was incubated at 37° C. with 5% CO2 for 24 hours to allow cells to adhere. An 11-point 3-fold serial dilution of the compounds was made in DMSO then diluted in media in an intermediate plate. Compounds were transferred from the intermediate plate to the cell plate with the top dose at a final concentration of 10 uM in the well. Final DMSO concentration was kept at or below 0.25%. The cell plate was returned to the incubator at 37° C. with 5% CO2 for an additional 24 hours.
The K562 cell line was cultured in IMDM with 10% FBS. For K562, cells were diluted with full growth media and plated in either a 96-well plate (50,000 cells in 50 uL media per well) or a 384-well plate (8,000-40,000 cells in 45 uL media per well). An 11-point 3-fold serial dilution of the compounds were made in DMSO then diluted in media in an intermediate plate. Compound was transferred from the intermediate plate to the cell plate with the top dose at a final concentration of 10 uM in the well. Final DMSO concentration was kept at or below 0.25%. Final volume was 100 uL for 96-well plate and 50 uL for 384-well plate. The cell plate was then placed in an incubator at 37° C. with 5% CO2 for 24 hours.
The cells were then gently washed with 50 uL-100 uL cold PBS before proceeding to addition of lysis buffer. 30 uL-50 uL of room temperature lysis buffer with DNAse I (and optionally RNAsin) was added to each well. Cells were shaken/mixed thoroughly at room temperature for 5-10 minutes for lysis to take place and then 3 uL-5 uL of room temperature stop solution was added and wells were shaken/mixed again. After 2-5 minutes, the cell lysate plate was transferred to ice for RT-qPCR reaction setup. The lysates could also be frozen at −80° C. for later use.
In some cases, a direct lysis buffer was used. An appropriate volume of 3× lysis buffer (10 mM Tris, 150 mM NaCl, 1.5%-2.5% Igepal and 0.1-1 U/uL RNAsin, pH 7.4) was directly added to either K562 or A673 cells in media and mixed by pipetting 3 times. The plates were then incubated at room temperature with shaking/rocking for 20-50 minutes to allow for lysis to take place. After this time, the cell lysate plate was transferred to ice to set up for the RT-qPCR reactions. The lysates could also be frozen at −80° C. for later use.

[6] = decrease in HTT canonical junction (CJ) mRNA, RT-qPCR, read-out: HTT CJ IC50
[7] = canonical junction qPCR panel, Table 5, read-out: HTT (decrease in CJ mRNA levels, IC50)
[8] = canonical junction qPCR panel, Table 5, read-out: MYB (decrease in CJ mRNA levels, IC50)
[9] = decrease in MYB canonical junction (CJ) mRNA, RT-qPCR, read-out: MYB CJ IC50

Row | Structure (SMILES) | IC50 [1, 6] | AC50 ([1]; RT-qPCR) | IC50 [1, 7] | GI50 [2] | IC50 [3] | IC50 [4] | IC50 [5, 8] | IC50 [5, 9] | AC50 ([5]; RT-qPCR)
1 | Cc1cn2nc(-c3ccc4c(=O)n([C@@H]5CCNC6(CCC6)C5)ccc4n3)cc(C)c2n1 [Compound 1517] | 0.1 to 1 µM | 0.1 to 1 µM | 0.1 to 1 µM | 1 to 10 µM | 1 to 10 µM | < 0.1 µM | 0.1 to 1 µM | 0.1 to 1 µM | 0.1 to 1 µM
2 | Cc1cn2nc(-c3ccc4c(=O)n([C@H]5CCNC6(CC6)C5)ncc4n3)cc2c(C)n1 [Compound 1549, 6-[(7S)-4-azaspiro[2.5]octan-7-yl]-2-(4,6-dimethylpyrazolo[1,5-a]pyrazin-2-yl)pyrido[2,3-d]pyridazin-5-one] | 0.1 to 1 µM | 0.1 to 1 µM | 0.1 to 1 µM | 1 to 10 µM | 1 to 10 µM | 0.1 to 1 µM | 1 to 10 µM | 1 to 10 µM | 1 to 10 µM
3 | CN1CCN(c2ccc3ncn(-c4cc(F)c5nn(C)cc5c4)c(=O)c3c2)CC1 [Compound 2194] | 1 to 10 µM | 1 to 10 µM | 1 to 10 µM | 1 to 10 µM | 1 to 10 µM | 1 to 10 µM | 1 to 10 µM | 1 to 10 µM | 1 to 10 µM
4 | C[C@@H]1C[C@H](n2ccc3nc(-c4cc5cn(C)nc5cc4O)ncc3c2=O)CCN1 [Compound 1474] | 1 to 10 µM | 1 to 10 µM | 1 to 10 µM | 0.1 to 1 µM | 1 to 10 µM | < 0.1 µM | 0.1 to 1 µM | 1 to 10 µM | 0.1 to 1 µM
5 | C[C@H]1C[C@@H](n2ccc3nc(-c4cc5cn(C)nc5cc4O)ncc3c2=O)CCN1 [Compound 1493, 2-(6-hydroxy-2-methyl-indazol-5-yl)-6-[(2S,4S)-2-methyl-4-piperidyl]pyrido[4,3-d]pyrimidin-5-one] | 1 to 10 µM | 1 to 10 µM | 1 to 10 µM | 0.1 to 1 µM | 1 to 10 µM | < 0.1 µM | 0.1 to 1 µM | 0.1 to 1 µM | 0.1 to 1 µM
6 | Cc1c(O)c(-c2ncc3c(=O)n([C@@H]4CCNC(C)(C)C4)ccc3n2)cc2cn(C)nc12 [Compound 1435] | 1 to 10 µM | 1 to 10 µM | 1 to 10 µM | 0.1 to 1 µM | > 10 µM | < 0.1 µM | 0.1 to 1 µM | 0.1 to 1 µM | 0.1 to 1 µM
7 | Cc1cn2nc(-c3ccc4c(=O)n(C5CCNCC5)ccc4n3)cc(C)c2n1 [Compound 1499, 2-(2,8-dimethylimidazo[1,2-b]pyridazin-6-yl)-6-(4-piperidyl)-1,6-naphthyridin-5-one] | < 0.1 µM | < 0.1 µM | < 0.1 µM | 0.1 to 1 µM | 0.1 to 1 µM | < 0.1 µM | < 0.1 µM | < 0.1 µM | < 0.1 µM
8 | Cc1cn2cc(-c3ncc4c(=O)n(C5C[C@@H](C)N[C@H](C)C5)ccc4n3)cc(F)c2n1 (stereo partly drawn) [Compound 1483, 6-[(2R,6R)-2,6-dimethyl-4-piperidyl]-2-(8-fluoro-2-methyl-imidazo[1,2-a]pyridin-6-yl)pyrido[4,3-d]pyrimidin-5-one] | 1 to 10 µM | 0.1 to 1 µM | 0.1 to 1 µM | 0.1 to 1 µM | 0.1 to 1 µM | < 0.1 µM | 0.1 to 1 µM | 1 to 10 µM | 0.1 to 1 µM
9 | Cc1cn2nc(-c3ccc4c(=O)n([C@H]5CCN[C@@H](C)C5)ccc4n3)cc(C)c2n1 [Compound 1495] | 0.1 to 1 µM | < 0.1 µM | < 0.1 µM | 0.1 to 1 µM | 0.1 to 1 µM | < 0.1 µM | < 0.1 µM | < 0.1 µM | < 0.1 µM
10 | Cc1cn2cc(-c3nc(C)c4c(=O)n([C@H]5CCN[C@@H](C)C5)ccc4n3)cc(F)c2n1 [Compound 1501, 2-(8-fluoro-2-methyl-imidazo[1,2-a]pyridin-6-yl)-4-methyl-6-[(2S,4S)-2-methyl-4-piperidyl]pyrido[4,3-d]pyrimidin-5-one] | 0.1 to 1 µM | 0.1 to 1 µM | 0.1 to 1 µM | 0.1 to 1 µM | 0.1 to 1 µM | < 0.1 µM | < 0.1 µM | < 0.1 µM | < 0.1 µM
11 | Cc1cn2cc(-c3ncc4c(=O)n(C5C[C@H](C)N[C@@H](C)C5)ccc4n3)cc(F)c2n1 (stereo partly drawn) [Compound 1482, 6-[(2S,6S)-2,6-dimethyl-4-piperidyl]-2-(8-fluoro-2-methyl-imidazo[1,2-a]pyridin-6yl)pyrido[4,3-d]pyrimidin-5-one] | 1 to 10 µM | 1 to 10 µM | 1 to 10 µM | < 0.1 µM | 0.1 to 1 µM | < 0.1 µM | < 0.1 µM | 0.1 to 1 µM | < 0.1 µM
12 | Cc1cn2nc(-c3ccc4c(=O)n([C@@H]5CCNC6(CC6)C5)ncc4n3)cc2c(C)n1 [Compound 1548, 6-[(7R)-4-azaspiro[2.5]octan-7-yl]-2-(4,6-dimethylpyrazolo[1,5-a]pyrazin-2-yl)pyrido[2,3-d]pyridazin-5-one] | 0.1 to 1 µM | 0.1 to 1 µM | 0.1 to 1 µM | 0.1 to 1 µM | 0.1 to 1 µM | 0.1 to 1 µM | 0.1 to 1 µM | 0.1 to 1 µM | 0.1 to 1 µM
13 | CN[C@H]1CC[C@@H](n2ccc3nc(-c4cc5cn(C)nc5c(C)c4O)ncc3c2=O)C1 [Compound 1478, 2-(6-hydroxy-2,7-dimethyl-indazol-5-yl)-6-[(1R,3S)-3-(methylamino)cyclopentyl]pyrido[4,3-d]pyrimidin-5-one] | 1 to 10 µM | 1 to 10 µM | 1 to 10 µM | 0.1 to 1 µM | 1 to 10 µM | < 0.1 µM | 0.1 to 1 µM | 0.1 to 1 µM | 0.1 to 1 µM
14 | Cc1c(O)c(-c2ccc3c(=O)n(C45CCC(N)(CC4)C5)ccc3n2)cc2cn(C)nc12 [Compound 1486] | 1 to 10 µM | 0.1 to 1 µM | 0.1 to 1 µM | < 0.1 µM | 1 to 10 µM | < 0.1 µM | < 0.1 µM | 0.1 to 1 µM | < 0.1 µM
